Test results as given in patent US5712417A, “Inhibitors of retroviral proteases” (Abbott Laboratories, priority 1989, dated 1998).
Structures can show the parent of a compound that is named as a salt. Where a SMILES comes first, the peptide text is derived from it. [ ]: non-standard residue; d: D form. The star is where a group is joined. Sta = CC(C)C[C@H](N)[C@@H](O)CC(=O)O; Isovaleryl = CC(C)CC(=O)*

How the values were obtained:
HIV protease [1] = biological target: T1, HIV protease (Human immunodeficiency virus type 1 group M subtype B, UniProt P04585); assay: Inhibition of HIV protease (cleavage of H-Ser-Phe-Asn-Phe-Opr-Gln-Ile-OH, HPLC); assay type: biochemical; settings: inhibitor concentration at which the cleavage rate is halved; pH 6, 2 hours; read-out: IC50
T1 construct: HIV protease consists of 99 amino acids and is evidently split off by itself from the pol polyprotein
Procedure, shortened: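 Substrate H-Ser-Phe-Asn-Phe-Opr-Gln-Ile-OH in MGTE buffer (MES, glycerol, Triton X-100, PMSF, pH 6) preincubated with inhibitor at 37 °C for 5-10 min, then reacted with protease at 35 °C for 2 h. RP18 HPLC at 215 nm; tetrapeptide fraction gives cleavage rate, IC50 where rate is halved.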

HIV protease [2] = settings: literature (Katoh et al., Nature 1987); cited from earlier work
core protein p24 = settings: high doses; cited from earlier work
[3] = in many cases require discontinuation of the therapy; cited from earlier work
HIV = settings: first strains of HIV; cited from earlier work

Structure (SMILES) | IC50 (HIV protease [1]) | further results
CC(C)[C@H](N)C(=O)N[C@@H](Cc1ccccc1)[C@H](O)[C@@H](O)[C@H](Cc1ccccc1)NC(=O)[C@@H](N)C(C)C [Example 131, N,N'-bis-<L-Valyl>-2S,5S-diamino-1,6-diphenylhexane-3S,4S-diol dihydrochloride] | 40000 nM | –
N[C@@H](CCCCNC(=O)OCc1ccccc1)C(=O)N[C@@H](Cc1ccccc1)[C@@H](O)[C@H](O)[C@H](Cc1ccccc1)NC(=O)[C@@H](N)CCCCNC(=O)OCc1ccccc1 [Example 132, N,N'-bis-<N^6 -Benzoxycarbonyl-L-lysyl>-2S,5S-diamino-1,6-diphenylhexane-3R,4R-diol dihydrochloride] | 20000 nM | –
CC(C)[C@H](NC(=O)[C@@H](N)Cc1ccccc1)C(=O)NCCCCNC(=O)[C@@H](NC(=O)[C@@H](N)Cc1ccccc1)C(C)C [Example 145, N,N'-bis-<L-Phenylalanyl-L-valyl>-1.4-diaminobutane dihydrochloride] | 95 nM | –
CC(C)[C@H](NC(=O)[C@H](Cc1cccc2ccccc12)CS(=O)(=O)C(C)(C)C)C(=O)NCCCCNC(=O)[C@@H](NC(=O)[C@H](Cc1cccc2ccccc12)CS(=O)(=O)C(C)(C)C)C(C)C [Example 146, N,N'-bis-<(2S-(1,1-Dimethylethylsulfonylmethyl)-3-(1-naphthyl)-propionyl)-L-valyl>-1,4-diaminobutane] | 100 nM | –
CC(C)[C@H](NC(=O)[C@@H](N)Cc1ccccc1)C(=O)N[C@@H](CCc1ccccc1)[C@@H](O)[C@H](O)[C@H](CCc1ccccc1)NC(=O)[C@@H](NC(=O)[C@@H](N)Cc1ccccc1)C(C)C [Example 148, N,N'-bis-(L-Phenylalanyl-L-valyl)-3S,6S-diamino-1,8-diphenyloctane-4R,5R-diol dihydrochloride] | 36 nM | –
CCCCC[C@H](NC(=O)[C@@H](NC(=O)[C@H](Cc1ccccc1)NC(=O)OC(C)(C)C)C(C)C)[C@@H](O)[C@H](O)[C@H](CCCCC)NC(=O)[C@@H](NC(=O)[C@H](Cc1ccccc1)NC(=O)OC(C)(C)C)C(C)C [Example 150, N,N'-bis-(tert.-Butoxycarbonyl-L-phenylalanyl-L-valyl)-6S,9S-diaminotetradecane-7R, 8R-diol] | 95 nM | –
CCCCC[C@H](NC(=O)[C@@H](NC(=O)[C@@H](N)Cc1ccccc1)C(C)C)[C@@H](O)[C@H](O)[C@H](CCCCC)NC(=O)[C@@H](NC(=O)[C@@H](N)Cc1ccccc1)C(C)C [Example 151, N,N'-bis-(L-Phenylalanyl-L-valyl )-6S, 9S-diamino-tetradecane-7R, 8R-diol dihydrochloride] | 4 nM | –
CC(C)[C@H](NC(=O)[C@@H](N)Cc1ccccc1)C(=O)N[C@@H](Cc1ccc2c(c1)OCO2)[C@@H](O)[C@H](O)[C@H](Cc1ccc2c(c1)OCO2)NC(=O)[C@@H](NC(=O)[C@@H](N)Cc1ccccc1)C(C)C [Example 154, N,N'-bis-(L-Phenylalanyl-L-valyl)-2S,5S-diamino-1,6-bis-(3,4-methylenedioxyphenyl)-hexane-3R,4R-diol dihydro-chloride] | 1 nM | –
CC(C)[C@H](NC(=O)[C@H](Cc1cccc2ccccc12)CS(=O)(=O)C(C)(C)C)C(=O)N[C@@H](Cc1ccc2c(c1)OCO2)[C@@H](O)[C@H](O)[C@H](Cc1ccc2c(c1)OCO2)NC(=O)[C@@H](NC(=O)[C@H](Cc1cccc2ccccc12)CS(=O)(=O)C(C)(C)C)C(C)C [Example 155] | 10 nM | –
CC[C@H](C)[C@H](NC(=O)[C@H](Cc1cccc2ccccc12)CS(=O)(=O)C(C)(C)C)C(=O)N[C@@H](Cc1ccccc1)[C@@H](O)[C@H](O)[C@H](Cc1ccccc1)NC(=O)[C@@H](NC(=O)[C@H](Cc1cccc2ccccc12)CS(=O)(=O)C(C)(C)C)[C@@H](C)CC [Example 156, N,N'-bis-(<2S-(1,1-Dimethylethylsulfonylmethyl)-3-(1-naphthyl)-propionyl>-L-isoleucyl)-2S,5S-diamino-1,6-diphenylhexane-3R,4R-diol] | 30 nM | –
CC(C)CC(=O)N[C@H](C(=O)N[C@H](C(=O)N[C@@H](CC(C)C)[C@@H](O)CC(=O)N[C@@H](C)C(=O)N[C@@H](CC(C)C)[C@@H](O)CC(=O)O)C(C)C)C(C)C [Pepstatin A] (Isovaleryl-VV[Sta]A[Sta]-OH) | – | IC50 (HIV protease [2]): […]; reducing the formation of the core protein p24 (core protein p24): capable of reducing the formation of the core protein p24
Cc1cn([C@H]2C[C@H](N=[N+]=[N-])[C@@H](CO)O2)c(=O)[nH]c1=O [Zidovudine (AZT)] | – | toxic side effects [3]: serious toxic side effects; sensitivity of HIV strains toward AZT (HIV): significantly lower sensitivity
